Reference: patent publication US6737383B1, “Herbicidal oxadiazolidines” (priority 1999, dated 2004)

How the values were obtained:
[1] = system: rice; test: Test B flood test rice; assay type: in vivo, Oryza sativa
Summary of the method: (§1)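 Read-out is a visual response score from 0 (no effect) to 10 (complete control), assigned by comparison with untreated controls. Treatment was applied at the 2-leaf stage, and plants stayed in the greenhouse for twelve to sixteen days before scoring.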

[2] = system: velvetleaf; test: Test B pre/postemergence velvetleaf; assay type: in vivo, Abutilon theophrasti
Summary of the method: (§2)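 Test chemicals in a non-phytotoxic solvent mixture with surfactant were sprayed preemergence onto planted seeds and postemergence onto plants 2 to 18 cm tall (1- to 4-leaf stage). After twelve to sixteen days in a greenhouse, injury was visually rated against untreated controls from 0 (no effect) to 10 (complete control).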

[3] = system: purple nutsedge; test: Test B pre/postemergence purple nutsedge; assay type: in vivo, Cyperus rotundus
Summary of the method: as §2

[4] = system: giant foxtail; test: Test B pre/postemergence giant foxtail; assay type: in vivo, Setaria faberii
Summary of the method: as §2

[5] = system: bedstraw; test: Test B pre/postemergence bedstraw; assay type: in vivo, Galium aparine
Summary of the method: as §2

[6] = system: pigweed; test: Test B pre/postemergence pigweed; assay type: in vivo, Amaranthus retroflexus
Summary of the method: as §2

[7] = system: corn; test: Test B pre/postemergence corn; assay type: in vivo, Zea mays
Summary of the method: as §2

[8] = system: soybean; test: Test B pre/postemergence soybean; assay type: in vivo, Glycine max
Summary of the method: as §2

[9] = system: morningglory; test: Test B pre/postemergence morningglory; assay type: in vivo, Ipomoea hederacea
Summary of the method: as §2

[10] = system: wild oat; test: Test B pre/postemergence wild oat; assay type: in vivo, Avena fatua
Summary of the method: as §2

[11] = system: blackgrass; test: Test B pre/postemergence blackgrass; assay type: in vivo, Alopecurus myosuroides
Summary of the method: as §2

[12] = system: surinam grass; test: Test B pre/postemergence surinam grass; assay type: in vivo, Brachiaria decumbens
Summary of the method: as §2

[13] = system: wheat; test: Test B pre/postemergence wheat; assay type: in vivo, Triticum aestivum
Summary of the method: as §2

[14] = system: crabgrass; test: Test B pre/postemergence crabgrass; assay type: in vivo, Digitaria sanguinalis
Summary of the method: as §2

[15] = system: smallflower flatsedge; test: Test B flood test smallflower flatsedge; assay type: in vivo, Cyperus difformis
Summary of the method: as §1

[16] = system: duck salad; test: Test B flood test duck salad; assay type: in vivo, Heteranthera limosa
Summary of the method: as §1

[17] = Rate 31 g/ha, Pre-emergence section (flood test species), scale 0 to 10
[18] = Rate 62 g/ha, headed Pre-emergence (flood test species), scale 0 to 10 (0 no effect, 10 complete control)
[19] = Rate 125 g/ha, Pre-emergence, flood test species, scale 0 to 10 where 0 is no effect and 10 is complete control
[20] = Rate 250 g/ha, Pre-emergence, flood-test species, scale 0 to 10, 0 is no effect, 10 is complete control
[21] = Preemergence, Rate 31 g/ha, visual rating, scale 0 to 10 (0 no effect, 10 complete control)
[22] = Preemergence, Rate 62 g/ha, scale of 0 to 10 where 0 is no effect and 10 is complete control
[23] = Preemergence, Rate 250 g/ha, scale of 0 to 10 where 0 is no effect and 10 is complete control
[24] = Rate 62 g/ha, Postemergence, scale of 0 to 10 where 0 is no effect and 10 is complete control
[25] = Rate 125 g/ha, Postemergence, scale 0 to 10
[26] = Rate 125 g/ha, Preemergence, scale of 0 to 10 where 0 is no effect and 10 is complete control
[27] = Rate 31 g/ha, Postemergence, scale 0 to 10

For `CC(=O)Cn1c(=O)on(C(=O)N(c2ccc(F)cc2)C(C)C)c1=O` [Compound 217], the “Rice plant response rating” value [1, 17] was 0, the “Rice plant response rating” value [1, 18] was 0 and the “Rice plant response rating” value [1, 19] was 0. For the same molecule, the “Rice plant response rating” value [1, 20] was 0, the “Velvetleaf plant response rating” value [2, 21] was 0 and the “Velvetleaf plant response rating” value [2, 22] was 0. For the same molecule, the “Velvetleaf plant response rating” value [2, 23] was 5, the “Velvetleaf plant response rating” value [2, 24] was 0 and the “Velvetleaf plant response rating” value [2, 25] was 0. For the same molecule, the “Velvetleaf plant response rating” value [2, 26] was 1, the “Plant response rating (0 to 10; 0 is no effect, 10 is complete control), Velvetleaf” value ([2]; Rate 250 g/ha, Postemergence) was 0 and the “Nutsedge plant response rating” value [3, 21] was 0. The “Nutsedge plant response rating” value [3, 22] was 0, the “Nutsedge plant response rating” value [3, 23] was 0 and the “Nutsedge plant response rating” value [3, 27] was 0. The “Nutsedge plant response rating” value [3, 24] was 0, the “Nutsedge plant response rating” value [3, 25] was 0 and the “Nutsedge plant response rating” value [3, 26] was 0. The “Plant response rating (0 to 10; 0 is no effect, 10 is complete control), Nutsedge” value ([3]; Rate 250 g/ha, Postemergence) was 0, the “Giant foxtail plant response rating” value [4, 21] was 3 and the “Giant foxtail plant response rating” value [4, 22] was 6. The “Giant foxtail plant response rating” value [4, 23] was 10, the “Giant foxtail plant response rating” value [4, 27] was 0 and the “Giant foxtail plant response rating” value [4, 24] was 1. The “Giant foxtail plant response rating” value [4, 25] was 2, the “Giant foxtail plant response rating” value [4, 26] was 8 and the “Plant response rating (0 to 10; 0 is no effect, 10 is complete control), Giant foxtail” value ([4]; Rate 250 g/ha, Postemergence) was 7. For the same molecule, the “Bedstraw plant response rating” value [5, 21] was 0, the “Bedstraw plant response rating” value [5, 22] was 0 and the “Bedstraw plant response rating” value [5, 23] was 0. The “Bedstraw plant response rating” value [5, 27] was 0, the “Bedstraw plant response rating” value [5, 24] was 0 and the “Bedstraw plant response rating” value [5, 25] was 0. The “Bedstraw plant response rating” value [5, 26] was 0, the “Plant response rating (0 to 10; 0 is no effect, 10 is complete control), Bedstraw” value ([5]; Rate 250 g/ha, Postemergence) was 0 and the “Redroot pigweed plant response rating” value [6, 21] was 0. For the same molecule, the “Redroot pigweed plant response rating” value [6, 22] was 0, the “Redroot pigweed plant response rating” value [6, 23] was 10 and the “Redroot pigweed plant response rating” value [6, 27] was 0. The “Redroot pigweed plant response rating” value [6, 24] was 0, the “Redroot pigweed plant response rating” value [6, 25] was 0 and the “Redroot pigweed plant response rating” value [6, 26] was 5. The “Plant response rating (0 to 10; 0 is no effect, 10 is complete control), Redroot pigweed” value ([6]; Rate 250 g/ha, Postemergence) was 0, the “Corn plant response rating” value [7, 21] was 0 and the “Corn plant response rating” value [7, 22] was 0. The “Corn plant response rating” value [7, 23] was 0, the “Corn plant response rating” value [7, 27] was 0 and the “Corn plant response rating” value [7, 24] was 0. For the same molecule, the “Corn plant response rating” value [7, 25] was 0, the “Corn plant response rating” value [7, 26] was 0 and the “Plant response rating (0 to 10; 0 is no effect, 10 is complete control), Corn” value ([7]; Rate 250 g/ha, Postemergence) was 0. The “Soybean plant response rating” value [8, 21] was 0, the “Soybean plant response rating” value [8, 22] was 0 and the “Soybean plant response rating” value [8, 23] was 0. The “Soybean plant response rating” value [8, 24] was 1, the “Soybean plant response rating” value [8, 25] was 1 and the “Soybean plant response rating” value [8, 26] was 0. For the same molecule, the “Plant response rating (0 to 10; 0 is no effect, 10 is complete control), Soybean” value ([8]; Rate 250 g/ha, Postemergence) was 1, the “Morningglory plant response rating” value [9, 21] was 0 and the “Morningglory plant response rating” value [9, 22] was 0. For the same molecule, the “Morningglory plant response rating” value [9, 23] was 0, the “Morningglory plant response rating” value [9, 27] was 0 and the “Morningglory plant response rating” value [9, 24] was 0. For the same molecule, the “Morningglory plant response rating” value [9, 25] was 0, the “Morningglory plant response rating” value [9, 26] was 0 and the “Plant response rating (0 to 10; 0 is no effect, 10 is complete control), Morningglory” value ([9]; Rate 250 g/ha, Postemergence) was 0. The “Wild oats plant response rating” value [10, 21] was 0, the “Wild oats plant response rating” value [10, 22] was 0 and the “Wild oats plant response rating” value [10, 23] was 2. The “Wild oats plant response rating” value [10, 24] was 0, the “Wild oats plant response rating” value [10, 25] was 0 and the “Wild oats plant response rating” value [10, 26] was 0. The “Plant response rating (0 to 10; 0 is no effect, 10 is complete control), Wild oats” value ([10]; Rate 250 g/ha, Postemergence) was 0, the “Blackgrass plant response rating” value [11, 21] was 0 and the “Blackgrass plant response rating” value [11, 22] was 6. For the same molecule, the “Blackgrass plant response rating” value [11, 23] was 8, the “Blackgrass plant response rating” value [11, 27] was 0 and the “Blackgrass plant response rating” value [11, 24] was 3. The “Blackgrass plant response rating” value [11, 25] was 6, the “Blackgrass plant response rating” value [11, 26] was 6 and the “Plant response rating (0 to 10; 0 is no effect, 10 is complete control), Blackgrass” value ([11]; Rate 250 g/ha, Postemergence) was 6. For the same molecule, the “B. signalgrass plant response rating” value [12, 21] was 0, the “B. signalgrass plant response rating” value [12, 22] was 0 and the “B. signalgrass plant response rating” value ([12]; Preemergence, Rate 250 g/ha, scale 0 to 10, 0 is no effect, 10 is complete control) was 0. The “B. signalgrass plant response rating” value [12, 27] was 0, the “B. signalgrass plant response rating” value [12, 24] was 0 and the “B. signalgrass plant response rating” value ([12]; Rate 125 g/ha, Postemergence, scale 0 (no effect) to 10 (complete control)) was 7. For the same molecule, the “B. signalgrass plant response rating” value [12, 26] was 0, the “Plant response rating (0 to 10; 0 is no effect, 10 is complete control), B. signalgrass” value ([12]; Rate 250 g/ha, Postemergence) was 7 and the “Wheat plant response rating” value [13, 21] was 0. For the same molecule, the “Wheat plant response rating” value [13, 22] was 0, the “Wheat plant response rating” value [13, 23] was 8 and the “Wheat plant response rating” value [13, 24] was 0. For the same molecule, the “Wheat plant response rating” value [13, 25] was 2, the “Wheat plant response rating” value [13, 26] was 3 and the “Plant response rating (0 to 10; 0 is no effect, 10 is complete control), Wheat” value ([13]; Rate 250 g/ha, Postemergence) was 3. For the same molecule, the “Crabgrass plant response rating” value [14, 21] was 0, the “Crabgrass plant response rating” value [14, 22] was 3 and the “Crabgrass plant response rating” value [14, 23] was 8. The “Crabgrass plant response rating” value [14, 27] was 0, the “Crabgrass plant response rating” value [14, 24] was 0 and the “Crabgrass plant response rating” value [14, 25] was 2. The “Crabgrass plant response rating” value [14, 26] was 4, the “Plant response rating (0 to 10; 0 is no effect, 10 is complete control), Crabgrass” value ([14]; Rate 250 g/ha, Postemergence) was 3 and the “S. Flatsedge plant response rating” value [15, 17] was 0. The “S. Flatsedge plant response rating” value [15, 18] was 0, the “S. Flatsedge plant response rating” value [15, 19] was 0 and the “S. Flatsedge plant response rating” value [15, 20] was 0. For the same molecule, the “Ducksalad plant response rating” value [16, 17] was 0, the “Ducksalad plant response rating” value [16, 18] was 0 and the “Ducksalad plant response rating” value [16, 19] was 0. For the same molecule, the “Ducksalad plant response rating” value [16, 20] was 0.
